Counter-ions that a name gives are not always drawn.
Columns and labels:
[1] = system: HIV-1 xxLAI; experiment: microbe, parasite or virus in culture; format: cell-based; settings: Human immunodeficiency virus 1; unpassaged HIV-1 xxLAI WT stock virus
[2] = system: HIV-1 isolates B, C, CRF_AE, CRF_AG; format: cell-based
[3] = system: HIV-1 RT; parameters: method as in earlier work; settings: K65R RT; cited from earlier work
[4] = cited from earlier work
[5] = system: HIV-1 subtypes A, B, C, D, CRF_AE, CRF_AG; experiment: Dose-response assay in TZM-GFP cells, diverse primary isolates
[6] = system: HIV-1 NL4-3; experiment: Dose-response assay in TZM-GFP cells, NL4-3 molecular clones with RT mutations; settings: for major resistance observed: all NL4-3 mutants tested, major = >12-fold for ISL, >4-fold for TDF
[7] = system: HIV-1 reverse transcriptase (endogenous RT in virions); experiment: Endogenous reverse transcriptase assay; format: biochemical; settings: K65R virions

## C#C[C@]1(CO)O[C@@H](n2cnc3c(N)nc(F)nc32)C[C@@H]1O [ISL, 4′-ethynyl-2-fluoro-2′-deoxyadensine]
[1]
  EC50: 0.0036 µM
[2]; CRF_AE backbone
  fold more susceptible, K65R with Ser68 vs K65R with Gly68: 3 fold
  susceptibility of Ser68 compared with Gly68: more susceptible
[2]; K65R, regardless of the isolate (B, C, CRF_AE, CRF_AG)
  sensitivity of mutant relative to WT: hypersensitivity
[3]
  fold more susceptible than wildtype RT: 4 fold
[4]; early clinical studies in humans
  tolerability: well tolerated
[4]; lower dose of ISL
  effect on CD4 T cell population: without any effects on the CD4 T cell population
[4]; subsequent clinical studies, patients on ISL
  effect on CD4 T cells: decline in CD4 T cells
[5]; all subtypes (A, B, C, D, CRF_AE, CRF_AG), 8-10 isolates each
  EC50 fold change from NL4-3: no more than 1.3 fold
[6]; NL4-3 K65R
  fold more sensitive than WT (EC50): 4 fold
[6]
  major resistance observed: No major resistance

## CC(C)OC(=O)OCOP(=O)(CO[C@H](C)Cn1cnc2c(N)ncnc21)OCOC(=O)OC(C)C [TDF, Tenofovir disoproxil fumarate]
[1]
  EC50: 0.0246 µM
[5]; subtype A
  EC50 fold change from NL4-3: 1.3 fold
[5]; subtype B
  EC50 fold change from NL4-3: 2.2 fold
[5]; subtype C
  EC50 fold change from NL4-3: 2.2 fold
[5]; subtype D
  EC50 fold change from NL4-3: 1.6 fold
[6]; NL4-3 K65R
  fold resistance relative to WT (EC50 fold change): 3 fold
[6]
  major resistance observed: No major resistance

## C[C@@H](Cn1cnc2c(N)ncnc21)OCP(=O)(O)OP(=O)(O)OP(=O)(O)O [TFV-DP]
[7]
  resistance phenotype (IC50 fold change from WT): conferred resistance

From paper PMC10612037 (Viruses, 2023)
